In brackets after ≈: the same amount, converted by molar mass. Where two headings read alike, the source gives them in different places. Square brackets hold non-standard residues; d marks the D form. Ends that are not written are not given here. Peptide text beside a SMILES is read from it. * marks the point of attachment. Trp(2-Pmc) = Cc1c(C)c(S(=O)(=O)c2[nH]c3ccccc3c2C[C@H](N)C(=O)O)c(C)c2c1OC(C)(C)CC2; Bip = N[C@@H](Cc1ccc(-c2ccccc2)cc1)C(=O)O; Fmoc = O=C(OCC1c2ccccc2-c2ccccc21)*; Acm = CC(=O)NC*
Columns and labels:
human red blood cells = test: Hemolytic assay; assay type: cell-based
Procedure: The hemolytic activities of the peptides were determined using fresh human red blood cells. 8 ml blood was taken from a healthy person. 4 ml blood was transferred to a polycarbonate tube containing heparin to a final concentration of 10 U/ml, and the remaining 4 ml blood was transferred to a glass tube containing EDTA with final concentration of 15% EDTA. The erythrocytes were isolated from heparin-treated blood by centrifugation in 1500 rpm for 10 min and washed three times with phosphate-buffered saline (PBS) to remove plasma and buffy coat. The cell pellet was resuspended in PBS to make the final volume of 4 ml. The peptide was diluted to a concentration of 2 mg/ml and 0.1 mg/ml. The peptide was further diluted to the concentrations as stated in Table 15. For each tube PBS was added first, then RBCs and peptide solutions. The hematocrit in the blood treated with EDTA was determined after 30 min with Sysmex K-1000, and the resuspended RBCs were diluted into 10% hematocrit. RBCs in PBS (1%) with and without peptides (Table 15) were incubated in a shaker at […] for 1 hour and then centrifuged at 4000 rpm for 5 min. The supernatant were carefully transferred to new polycarbonate tubes and the absorbance of the supernatant was measured at 540 nm. Baseline hemolysis was hemoglobin released in the presence of PBS, and 100% hemolysis was hemoglobin released in the presence of 0.1% Triton X-100.

[1] = system: Meth A cells (murine sarcoma cell line); test: Cytotoxicity on Meth A cells, MTT method
Procedure: Peptide solutions (0.1 ml) were added and the plates incubated at 37° C. for 30 minutes, 4 hours or 24 hours. The cytotoxicity was measured using the MTT method (Mosmann et al., J. Immunol. (1986) 136, 2348-2357).
Cells in the growth phase were harvested and washed in fresh medium and injected subcutaneously into the abdominal region of the mice.
The cytotoxic effect of the peptides on different murine and human tumor cells were measured using the MTT method (Mosmann et al., J. Immunol. (1986) 136, 2348-2357). MTT is a soluble tetrazolium salt yielding a yellow solution when prepared in media or salt solutions lacking phenol red. Dissolved MTT is converted to an insoluble purple formazan by cleavage of the tetrazolium ring by dehydrogenase enzymes. This water insoluble formazan can be solubilized using isopropanol or other solvents and the dissolved material is measured spectrophotometrically. The absorbance was measured as a function of concentration of converted dye.
Cells were maintained in […] medium containing 10% FBS, 1% L-glutamine and 0.1% penicillin and streptomycin. Cells to be used in the assay were grown to confluency, trypsinated and split to single cell suspension, counted and centrifuged at 1500 rpm for 10 min. […][…] of cell suspension was transferred to each well on a 96-well microtiter plate. The cells were stimulated by adding […] of various concentrations of peptides diluted with assay medium to each well. The final concentrations of peptide were for example: 5, 10, 20, 40, 60, 80, 100, and 200 mg/ml. […] As a negative control only medium was added to the cells, and as a positive control (100% killing) 1% triton X-100 was added. Following an incubation period of 4 h., 20 ml MTT dissolved in PBS at a concentration of 5 mg/ml was added to each well, and the plate was incubated further for 2 h. 130 ml of the supernatant were then removed and […] acid alcohol (0.04-0.1 N HCl in isopropanol) added to each well to dissolve the dark blue crystals. The plate was placed on a shaker for 1 h and read spectrophotometrically at 590 nm in a microtiterplate reader using the Softmaxâ program.

[2] = system: Escherichia coli ATCC 25922; assay type: cell-based
In short: (§1)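 Microdilution MIC; 1% Bacto Peptone water; inoculum 2×10^6 CFU/ml, mid-log cells; triplicates; peptide levels verified by HPLC before and after addition to wells.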

[3] = system: Staphylococcus aureus ATCC 25923; assay type: cell-based
In short: as §1

[4] = read-out: MethA IC 50, Table 7, peptide required to kill 50% of MethA cells

| Compound | EC50 (human red blood cells; red cells of human) [µM] | MIC E. coli ([2]; ATCC 25922) [µg/mL] | MIC S. aureus ([3]; ATCC 25923) [µg/mL] | MethA IC50 ([1]; 4 h) [µg/mL] | also measured |
| --- | --- | --- | --- | --- | --- |
| CSCC[C@H](NC(=O)[C@H](CCCNC(=N)N)NC(=O)[C@H](Cc1c[nH]c2ccccc12)NC(=O)[C@H](C)NC(=O)[C@H](Cc1c[nH]c2ccccc12)NC(=O)[C@H](CCCNC(=N)N)NC(=O)[C@H](CCCNC(=N)N)NC(=O)[C@H](C)NC(=O)[C@H](CCCCN)NC(=O)[C@H](Cc1ccc(-c2ccccc2)cc1)NC(=O)[C@H](Cc1c[nH]c2ccccc12)NC(=O)[C@H](C)NC(=O)[C@@H]1CCCN1)C(=O)N[C@@H](CCCCN)C(=O)N[C@@H](CCCCN)C(=O)N[C@@H](CC(C)C)C(=O)N[C@@H](C)C(=O)N[C@@H](C)C(=O)O [LFB1431A2, 6, 10, 17Bip4] (H-PAW[Bip]KARRWAWRMKKLAA-OH; N-terminus assumed) | 336 |  |  |  | EC50 ([1]; 4 h): 23.4 µM |
| CSCC[C@H](NC(=O)[C@H](CCCNC(=N)N)NC(=O)[C@H](Cc1c[nH]c2ccccc12)NC(=O)[C@H](C)NC(=O)[C@H](Cc1c[nH]c2ccccc12)NC(=O)[C@H](CCCNC(=N)N)NC(=O)[C@H](CCCNC(=N)N)NC(=O)[C@H](C)NC(=O)[C@H](CCCCN)NC(=O)[C@H](Cc1ccccc1)NC(=O)[C@H](Cc1c[nH]c2ccccc12)NC(=O)[C@H](C)NC(=O)[C@@H]1CCCN1)C(=O)N[C@@H](CCCCN)C(=O)N[C@@H](CCCCN)C(=O)N[C@@H](CC(C)C)C(=O)N[C@@H](C)C(=O)N[C@@H](C)C(=O)O [LFB 14-31 A2,6, 10, 17] | > 440 | 20 (≈ 8.8 µM) | 2.5 (≈ 1.1 µM) |  | EC50 ([1]; 4 h): 165 µM; IC50 ([1]; 4 h): 165 µM; IC50 [1, 4]: 165 µM |
| CSCC[C@H](NC(=O)[C@H](CCCNC(=N)N)NC(=O)[C@H](Cc1c[nH]c2ccccc12)NC(=O)[C@H](C)NC(=O)[C@H](Cc1c[nH]c2ccccc12)NC(=O)[C@H](CCCNC(=N)N)NC(=O)[C@H](CCCNC(=N)N)NC(=O)OCC1c2ccccc2-c2ccccc21)C(=O)N[C@@H](CCCCN)C(=O)N[C@@H](CCCCN)C(=O)O [LFB 20-28 A4 FMOC] (Fmoc-RRWAWRMKK-OH) |  |  |  | 120 |  |
| CSCC[C@H](NC(=O)[C@H](CCCNC(=N)N)NC(=O)[C@H](Cc1c[nH]c2ccccc12)NC(=O)[C@H](CCC(N)=O)NC(=O)[C@H](Cc1c[nH]c2ccccc12)NC(=O)[C@H](CCCNC(=N)N)NC(=O)[C@H](CCCNC(=N)N)NC(=O)OCC1c2ccccc2-c2ccccc21)C(=O)N[C@@H](CCCCN)C(=O)N[C@@H](CCCCN)C(=O)N[C@@H](CC(C)C)C(=O)O [LFB 20-29 FMOC] (Fmoc-RRWQWRMKKL-OH) |  | 5 (≈ 2.92 µM) | 10 (≈ 5.85 µM) | 140 | % Hemolysis 10 μg/ml (human red blood cells; red cells of human): 10.3%; % Hemolysis 100 μg/ml (human red blood cells; red cells of human): 28.2% |
| CSCC[C@H](NC(=O)[C@H](CCCNC(=N)N)NC(=O)[C@H](Cc1c[nH]c2ccccc12)NC(=O)[C@H](C)NC(=O)[C@H](Cc1c[nH]c2ccccc12)NC(=O)[C@H](CCCNC(=N)N)NC(=O)[C@H](CCCNC(=N)N)NC(=O)[C@H](CSCNC(C)=O)NC(=O)[C@H](CCCCN)NC(=O)[C@@H](N)Cc1ccccc1)C(=O)N[C@@H](CCCCN)C(=O)N[C@@H](CCCCN)C(=O)N[C@@H](CC(C)C)C(=O)NCC(=O)N[C@@H](C)C(=O)O [LFB A7] (H-FKC(Acm)RRWAWRMKKLGA-OH) |  | 30 (≈ 14.9 µM) | 150 (≈ 74.7 µM) | 500 |  |
| CSCC[C@H](NC(=O)[C@H](CCCNC(=N)N)NC(=O)[C@H](C)NC(=O)[C@H](CCC(N)=O)NC(=O)[C@H](Cc1c(S(=O)(=O)c2c(C)c(C)c3c(c2C)CCC(C)(C)O3)[nH]c2ccccc12)NC(=O)[C@H](CCCNC(=N)N)NC(=O)[C@H](CCCNC(=N)N)NC(=O)[C@H](CSCNC(C)=O)NC(=O)[C@H](CCCCN)NC(=O)[C@H](Cc1ccccc1)NC(=O)OCC1c2ccccc2-c2ccccc21)C(=O)N[C@@H](CCCCN)C(=O)N[C@@H](CCCCN)C(=O)N[C@@H](CC(C)C)C(=O)NCC(=O)N[C@@H](C)C(=O)O [LFB A8 FMOC PMC] (Fmoc-FKC(Acm)RR[Trp(2-Pmc)]QARMKKLGA-OH) |  |  |  |  | % Hemolysis 10 μg/ml (human red blood cells; red cells of human): 6.75%; % Hemolysis 100 μg/ml (human red blood cells; red cells of human): 45.4%; concentration killing Meth A tumor cells ([1]; after 4 hours incubation): 50 µg/mL; concentration killing Meth A tumor cells ([1]; after ½ hour incubation): higher than 100 μg/ml |
| CSCC[C@H](NC(=O)[C@H](CCCNC(=N)N)NC(=O)[C@H](C)NC(=O)[C@H](CCC(N)=O)NC(=O)[C@H](Cc1c(S(=O)(=O)c2c(C)c(C)c3c(c2C)CCC(C)(C)O3)[nH]c2ccccc12)NC(=O)[C@H](CCCNC(=N)N)NC(=O)[C@H](CCCNC(=N)N)NC(=O)[C@H](CSCNC(C)=O)NC(=O)[C@H](CCCCN)NC(=O)[C@@H](N)Cc1ccccc1)C(=O)N[C@@H](CCCCN)C(=O)N[C@@H](CCCCN)C(=O)N[C@@H](CC(C)C)C(=O)NCC(=O)N[C@@H](C)C(=O)O [LFB A8 PMC] (H-FKC(Acm)RR[Trp(2-Pmc)]QARMKKLGA-OH) |  | 15 (≈ 6.77 µM) | 17.5 (≈ 7.89 µM) | 275 |  |
| CSCC[C@H](NC(=O)[C@H](CCCNC(=N)N)NC(=O)[C@H](Cc1c[nH]c2ccccc12)NC(=O)[C@H](CCC(N)=O)NC(=O)[C@H](Cc1c[nH]c2ccccc12)NC(=O)[C@H](CCCNC(=N)N)NC(=O)[C@H](CCCNC(=N)N)NC(=O)[C@H](CSCNC(C)=O)NC(=O)[C@H](CCCCN)NC(=O)[C@@H](N)Cc1ccccc1)C(=O)N[C@@H](CCCCN)C(=O)N[C@@H](CCCCN)C(=O)N[C@@H](CC(C)C)C(=O)N[C@@H](C)C(=O)N[C@@H](C)C(=O)O [LFB A14] (H-FKC(Acm)RRWQWRMKKLAA-OH) |  | 25 (≈ 12 µM) | 160 (≈ 76.9 µM) | 500 |  |
| H-FKARRWQWRMKKLGA-OH [LFB A3] |  | 25 | 100 | 500 |  |
| Linear LFB (17-41) modified with Pmc: linear LFB (17-41) modified with Pmc |  |  |  |  | cytotoxic effect on Meth A cells compared with another peptide [1]: slightly more effective than Pmc modified LFB 17-31 |
| PAWFKARRWAWRMKK-OH [LFB 14-28 A2,6, 10] | > 438 |  |  |  | IC50 ([1]; 4 h): > 248 µM |
| PAWFKARRWAWRMKKL-OH [LFB 14-29 A2,6, 10] | > 469 |  |  |  | IC50 ([1]; 4 h): > 235 µM |
| PAWFKARRWAWRMKKLA-OH [LFB 14-30 A2,6, 10, 17] | > 454 |  |  |  | IC50 ([1]; 4 h): > 227 µM |
| PAWRKARRWARRMKKLAA-OH [LFB 14-31 A2,6, 10, 17R4, 11] | > 444 |  |  |  | IC50 [1, 4]: 75.5 µM |
| YRAWRWAWRWR-NH2 [LFB 17-27 A3, 7 R2, 11 W4, 10 Y1 NH2, TYR-ARG-ALA-TRP-ARG-TRP-ALA-TRP-ARG-TRP-ARG-CONH2] |  |  |  |  | MIC E. coli ([2]; Table 14, peptides with a proportion of D amino acids): 10 µg/mL; MIC S. aureus ([3]; Table 14): 2.5 µg/mL; EC50 (human red blood cells): 400 ± 200 µM; EC 50 (human red blood cells; Table 13, toxicity (hemolysis)): 700 ± 300 µg/mL |

Source: patent US20030022821A1, “Bioactive peptides” (priority 1998, published 2003)
